Experiments:
C57B/6 male mice = experiment: Passive (inhibitory) avoidance task; assay type: in vivo; conditions: for Training latency Day 0 (latency to enter the dark/shock compartment): Day 0 is pre-treatment, N = 6/group; for Training latency Day 0 (latency to enter the dark/shock compartment) / Testing latency Day 1 (latency to enter the dark/shock compartment) / Testing latency Day 4 (latency to enter the dark/shock compartment) / Testing latency Day 7 (latency to enter the dark/shock compartment): in s; for Testing latency Day 1 (latency to enter the dark/shock compartment) / Testing latency Day 4 (latency to enter the dark/shock compartment) / Testing latency Day 7 (latency to enter the dark/shock compartment): max trial 180 sec; for memory for the shock-associated environment: IP post-training injections, young mice, versus vehicle
Description: (§1) The passive avoidance task exploits the tendency for rodents to avoid environments previously associated with an aversive stimulus (e.g. shock) and is therefore a reliable measure of emotional memory. The Morris water maze (MWM) task, a test of spatial learning and memory, requires that the animal learns the spatial locations of various extra-maze cues in order to accurately locate an escape platform that is hidden beneath the surface of the water in a water tank.
Table 2, below, indicates the effects of compounds of the invention in a passive avoidance task (latency to enter the dark/shock compartment as dependent variable). Data were analyzed with One-Way ANOVAs followed by Bonferroni-corrected post-hoc measures (required P value dependent upon number of comparisons). The table below includes data from Vehicle-treated mice and mice treated with Compound A and Compound B.
All treatments were administered IP immediately post-training.
Passive Inhibitory Avoidance
C57B/6 male mice (20-25 g; n=6-8/group) were used in this study.
One Day 0, animals were individually placed in the bright side of a 2-chambered inhibitory avoidance box. Mice were given 35 seconds to acclimate after which a door between the two compartments was lifted and the animals were allowed to cross over into the dark compartment. Once they crossed over, the gate would close and the animal would receive a mild (0.15 mA, 2 sec) footshock. Memory retention for the shock-associated environment was evaluated 24 hours (Day 1), 4 (Day 4) and 7 (Day 7) days later. On each of the three memory retention tests (Days 1, 4, and 7), the mouse was given 15 seconds to acclimate before the gate was lifted. Latency to enter the dark (shock) compartment was measured and considered an index of passive fear avoidance. Maximum trial length=180 sec.

aged rats = experiment: Morris water maze task; assay type: in vivo
Description: as §1
Table 3, below, indicates the effects of Compound C in the Morris water maze task (mean escape latencies across testing days are shown).
Data were analyzed with a Mann-Whitney U Test. Mean escape latency indicates the group mean over three sessions to escape onto the hidden platform. Data are shown for days 7-11 (the water maze training days); animals were dosed twice daily (PO) with 10 mg/kg Compound No. 1 or vehicle (as indicated) on Days 1-6 prior to water maze training.
The Morris Maze consisted of a circular water tank (150 cm in diameter) filled with water and maintained at 27° C. with an escape platform (15 cm in diameter) 18 cm from the perimeter always in the same position 2 cm beneath the surface of the water. The water was made opaque by addition of a non-toxic coloring agent rendering the platform invisible. The testing was performed under light of moderate intensity.
The animals were given 5 training sessions over 5 consecutive days. Each training session consisted of 3 consecutive trials in the Morris Maze separated by 120 seconds. For each trial the animal was placed in the maze at one of two starting points equidistant from the escape platform and allowed to find the escape platform. The animal was left on the escape platform for 60 seconds followed by a 60-second rest in an individual cage before starting a new trial. […] During the 3 trials the animals started the maze from the different starting points in a randomly determined order per animal.
The trials were video-recorded and the behavior of the animals was analyzed using a video-tracking system (Panlab: Smart). The principal measure taken was the escape latency (time to find the hidden platform) at each trial. Additional measures (path length (distance traveled to find the hidden platform) and average speed) were also measured.
Aged animals show amnesia in this task as indicated by a lower capacity to reduce their escape latencies from trial to trial.
15 aged rats were studied per group. The experiment also included a young control group. The test was performed blind.
Compound C was evaluated at the dose of 10 mg/kg, administered p.o., and compared with a vehicle control group. The animals received the assigned treatment twice daily for 6 days prior to water-maze training. Twice daily administration continued during training, with one administration 60 minutes before each training session and the second administration between either 8.30-9.30 am or 4:30-5:30 pm, whichever was furthest from the training session for that particular animal.
The experiment therefore included 3 groups.
Data were analyzed by comparing treated groups with aged control using Mann Whitney U tests. In addition, the data were submitted to a two-factor analysis of variance (with age and session as factors, with repeated measures for session).

[1] = 1 mg/kg IP given immediately post-training
[2] = 1 mg/kg IP immediately post-training
[3] = 10 mg/kg IP given immediately post-training
[4] = 10 mg/kg IP immediately post-training

| SMILES | Training latency Day 0 (latency to enter the dark/shock compartment) (C57B/6 male mice; [1]) | Testing latency Day 1 (latency to enter the dark/shock compartment) (C57B/6 male mice; [2]) | Testing latency Day 4 (latency to enter the dark/shock compartment) (C57B/6 male mice; [2]) | Testing latency Day 7 (latency to enter the dark/shock compartment) (C57B/6 male mice; [2]) | Training latency Day 0 (latency to enter the dark/shock compartment) (C57B/6 male mice; [3]) | Testing latency Day 1 (latency to enter the dark/shock compartment) (C57B/6 male mice; [4]) | Testing latency Day 4 (latency to enter the dark/shock compartment) (C57B/6 male mice; [4]) | Testing latency Day 7 (latency to enter the dark/shock compartment) (C57B/6 male mice; [4]) | memory for the shock-associated environment (C57B/6 male mice) | escape latency of aged rats over the training period (aged rats; 10 mg/kg twice daily for 6 days prior to and during the experiment, compared with aged controls) | effect on escape latency, pooled data of the last 3 training sessions (aged rats; 10 mg/kg twice daily, aged rats versus aged controls) | Mean Escape Latency Day 7 (aged rats; aged rats, 10 mg/kg p.o. twice daily, Day 7 (1st training day)) [s] | Mean Escape Latency Day 8 (aged rats; aged rats, 10 mg/kg p.o. twice daily, Day 8) [s] | Mean Escape Latency Day 9 (aged rats; aged rats, 10 mg/kg p.o. twice daily, Day 9) | Mean Escape Latency Day 10 (aged rats; aged rats, 10 mg/kg p.o. twice daily, Day 10) [s] | Mean Escape Latency Day 11 (aged rats; aged rats, 10 mg/kg p.o. twice daily, Day 11) [s] |
| --- | --- | --- | --- | --- | --- | --- | --- | --- | --- | --- | --- | --- | --- | --- | --- | --- |
| N[C@@H](C(=O)N1CCCC1)[C@@H](O)c1ccncc1 [Compound A] | 14.26 | 64.34 | 65.52 | 54.32 | 9.88 | 82.58 | 58.33 | 47.87 | significantly improved memory | – | – | – | – | – | – | – |
| N[C@@H](C(=O)N1CCCCC1)[C@@H](O)c1ccsc1 [Compound B] | 6.58 | 95.42 | 81 | 43.55 | 8.43 | 126.27 | 83.4 | 56.22 | significantly improved memory | – | – | – | – | – | – | – |
| N[C@@H](C(=O)N1CCCC1)[C@@H](O)c1ccncc1 [Compound C] | – | – | – | – | – | – | – | – | – | decreased the escape latency | statistically significant | 69.9 ± 4.0 | 49.3 ± 5.4 | 41.0 ± 1.8 ⋄ sec | 28.0 ± 2.2 | 30.4 ± 3.4 |
